According to patent publication US20230123334A1, “AMINO LIPID COMPOUND, PREPARATION METHOD THEREFOR, AND APPLICATION THEREOF” (SHENZHEN SHENXIN BIOTECHNOLOGY CO., LTD., priority 2020, published 2023):

Test system: HEK293 cells
Assay: Preliminary screening as mRNA vectors, EGFP mRNA transfection of HEK293 cells
Format: cell-based
Conditions: EGFP mRNA 50 ng per well, 96-well plates; percentage of GFP fluorescent cells relative to total number of cells (Hoechst)
Protocol: Cell line: HEK293 cells (ATCC CRL-1573™)
Medium: DMEM supplemented with 10% fetal bovine serum (Invitrogen)
Screening: cell transfection on 96-well plates
Detection (readout): percentage of the number of GFP fluorescent cells relative to the total number of cells (the total number of cells was determined using nucleus dye Hoechst). Lipofectamine2000 (Invitrogen) was used as the positive control.
Method: the experimental method was basically the same with Example 4, and the mass of EGFP mRNA (TriLink) for transfection was 50 ng per well.

SMILES	Absolute mRNA transfection efficiency in HEK293 cells [%]
CCCCCCCCCCCCCCCCNc1nc(NCCN2CCOCC2)nc(SCCCCCCCCCCCCCCC)n1 [Compound D2S15N16]	1.4
CCCCCCCCCCCNc1nc(NCCCN2CCOCC2)nc(SCCCCCCCCCC)n1 [Compound D8S10N11]	0.1
CCCCCCCCCCCCCCCCNc1nc(NCCN(C)C)nc(SCCCCCCCCCCCCCCCC)n1 [Compound D1S16N16]	0.9
CCCCCCCCCCCCCCCCNc1nc(NCCN2CCN(C)CC2)nc(SCCCCCCCC)n1 [Compound D5S8N16]	32.3
CCCCCCCCCCCCCCCSc1nc(NCCCCCCCCCCCCC)nc(NCCCN2CCOCC2)n1 [Compound D8S15N13]	0.2
CCCCCCCCCCCCCCCSc1nc(NCCCCCC)nc(NCCCN(C)C)n1 [Compound D6S15N6]	37.4
CCCCCCCCCCCCCCCCCCNc1nc(NCCCN(C)C)nc(SCCCCCCCCCCCCCCCC)n1 [Compound D6S16N18]	0.0
CCCCCCCCNc1nc(NCC2CCN(C)CC2)nc(SCCCCCCCC)n1 [Compound D10S8N8]	1.2
CCCCCCCCCSc1nc(NCCN(CC)CC)nc(SCCCCCCCC)n1 [Compound D7S8S9]	11.1
CCCCCCCCCCCCCCCCNc1nc(NCCN2CCCC2)nc(SCCCCCCCCCCCCCCCC)n1 [Compound D3S16N16]	1.1
CCCCCCCCCCCCCCCSc1nc(NCCCCCCCC)nc(NCCCN2CCOCC2)n1 [Compound D8S15N8]	2.9
CCCCCCCCCCCCCNc1nc(NCC2CCN(C)CC2)nc(SCCCCCCCCCC)n1 [Compound D10S10N13]	8.5
CCCCCCCCCCCCCCCSc1nc(NCCN2CCOCC2)nc(N(CCCCCCCCCCCC)CCCCCCCCCCCC)n1 [D2S15^2N12]	0.4
CCCCCCCCCCCCCCCSc1nc(NCCCCCCCCCCCCC)nc(NCCN(C)C)n1 [Compound D1S15N13]	1.5
CCCCCCCCCSc1nc(NCCCCCCC)nc(NCCN2CCCC2)n1 [Compound D3S9N7]	1.4
CCCCCCCCCCCCCNc1nc(NCCCN(C)C)nc(SCCCCCCCCC)n1 [Compound D6S9N13]	70.9
CCCCCCCCCCCCCCCSc1nc(NCCCCCCCCCCCC)nc(NCCCN(C)C)n1 [Compound D6S15N12]	9.6
CCCCCCCCCCCNc1nc(NCCN2CCN(C)CC2)nc(SCCCCCCCC)n1 [Compound D5S8N11]	30.1
CCCCCCCCCCCCCCSc1nc(NCCN(C)C)nc(SCCCCCC)n1 [Compound D1S6S14]	0.8
CCCCCCCCCCCCCNc1nc(NCCN(C)C)nc(SCCCCCCCCC)n1 [Compound D1S9N13]	25.8
CCCCCCCCCCCCCCCCNc1nc(NCCCN2CCN(C)CC2)nc(SCCCCCCC)n1 [Compound D9S7N16]	29.3
CCCCCCCCCCCCCCCCCCNc1nc(NCCN2CCCC2)nc(SCCCCCCCCCCC)n1 [Compound D3S11N18]	40.6

SMILES	Absolute mRNA transfection efficiency in HEK293 cells [%]
CCCCCCCCSc1nc(NCCN2CCOCC2)nc(SCCCCCCCC)n1 [Compound D2S8S8]	54.5
CCCCCCCCCCCCCCCSc1nc(NCCCCCCCC)nc(NCCN2CCN(C)CC2)n1 [Compound D5S15N8]	94.7
CCCCCCCCCCCNc1nc(NCCCN2CCN(C)CC2)nc(SCCCCCC)n1 [Compound D9S6N11]	11.9
CCCCCCCCCCCSc1nc(NCCN2CCCC2)nc(SCCCCCCCC)n1 [Compound D3S8S11]	4.9
CCCCCCCCCCCCCCCNc1nc(NCCN(C)C)nc(SCCCCCCCC)n1 [Compound D1S8N15]	23.8
CCCCCCCCCCCCCCCCCCNc1nc(NCCN2CCCCC2)nc(SCCCCCCCCCC)n1 [Compound D4S10N18]	37.7
CCCCCCCCCCCCCCCCSc1nc(NCCCCCC)nc(NCCN(C)C)n1 [Compound D1S16N6]	54.2
CCCCCCCCCCCCCCCCNc1nc(NCCN(CC)CC)nc(SCCCCCCCCCCC)n1 [Compound D7S11N16]	4.4
CCCCCCCCCCCCCCCCSc1nc(NCCCCCCCC)nc(NCCN2CCN(C)CC2)n1 [Compound D5S16N8]	72.2
CCCCCCCCCCCCCCCCCCNc1nc(NCCCN2CCOCC2)nc(SCCCCCCCCCCC)n1 [Compound D8S11N18]	0.6
CCCCCCCCCCSc1nc(NCCCCCCC)nc(NCC2CCN(C)CC2)n1 [Compound D10S10N7]	1.0
CCCCCCCCCCCCCCCCSc1nc(NCCCCCCC)nc(NCCN2CCOCC2)n1 [Compound D2S16N7]	10.0
CCCCCCCCCCCCNc1nc(NCCN(C)C)nc(SCCCCCC)n1 [Compound D1S6N12]	0.0
CCCCCCCCCCCNc1nc(NCCN2CCOCC2)nc(SCCCCCCCCC)n1 [Compound D2S9N11]	44.8
CCCCCCCCCCCCCCCCCCSc1nc(NCCCCCCCCCCCCCCCC)nc(NCC2CCN(C)CC2)n1 [Compound D10S18N16]	0.4
CCCCCCCCCCSc1nc(NCCN2CCOCC2)nc(SCCCCCCCC)n1 [Compound D2S8S10]	38.8
CCCCCCCCCCSc1nc(NCCCCCCCCC)nc(NCCN(C)C)n1 [Compound D1S10N9]	0.5
CCCCCCCCCNc1nc(NCC2CCN(C)CC2)nc(SCCCCCCCCC)n1 [Compound D10S9N9]	70.0
CCCCCCCCCCCSc1nc(NCCN(CC)CC)nc(SCCCCCC)n1 [Compound D7S6S11]	0.5
CCCCCCCCCCCCCCCNc1nc(NCCN2CCN(C)CC2)nc(SCCCCCCCCCC)n1 [Compound D5S10N15]	1.8
CCCCCCCCCCCNc1nc(NCCN(C)C)nc(SCCCCCCCCC)n1 [Compound D1S9N11]	53.0
CCCCCCCCCCCSc1nc(NCCCCCCCCC)nc(NCC2CCN(C)CC2)n1 [Compound D10S11N9]	87.7

SMILES	Absolute mRNA transfection efficiency in HEK293 cells [%]
CCCCCCCCCCCCSc1nc(NCCCCCCCCC)nc(NCCCN(C)C)n1 [Compound D6S12N9]	24.0
CCCCCCCCCCCCCCSc1nc(NCCCCCCC)nc(NCCN2CCOCC2)n1 [Compound D2S14N7]	4.5
CCCCCCCCCCCCCCCCCCSc1nc(NCCCCCCCCCCCCCCCC)nc(NCCN(CC)CC)n1 [Compound D7S18N16]	0.3
CCCCCCCCCCCNc1nc(NCCN2CCCC2)nc(SCCCCCC)n1 [Compound D3S6N11]	0.7
CCCCCCCCCCCCCCCCNc1nc(NCCCN2CCN(C)CC2)nc(SCCCCCCCCCCC)n1 [Compound D9S11N16]	3.9
CCCCCCCCCCCCCCSc1nc(NCCN2CCCCC2)nc(SCCCCCC)n1 [Compound D4S6S14]	5.3
CCCCCCCCCCCCCCCCNc1nc(NCC2CCN(C)CC2)nc(SCCCCCCCC)n1 [Compound D10S8N16]	36.4
CCCCCCCCCCCCCCCCNc1nc(NCC2CCN(C)CC2)nc(SCCCCCCCCCCCC)n1 [Compound D10S12N16]	3.4
CCCCCCCCCCCCCCCCCCNc1nc(NCC2CCN(C)CC2)nc(SCCCCCCCCC)n1 [Compound D10S9N18]	22.4
CCCCCCCSc1nc(NCCCCCC)nc(NCCN2CCN(C)CC2)n1 [Compound D5S7N6]	1.9
CCCCCCCCCCCCNc1nc(NCCN2CCCC2)nc(SCCCCCCCCCCC)n1 [Compound D3S11N12]	40.5
CCCCCCNc1nc(NCCN2CCCC2)nc(SCCCCCC)n1 [Compound D3S6N6]	0.1
CCCCCCCCCCCSc1nc(NCCCCCCC)nc(NCCN(C)C)n1 [Compound D1S11N7]	11.7
CCCCCCCCCCCCCNc1nc(NCCN2CCCC2)nc(SCCCCCCC)n1 [Compound D3S7N13]	19.1
CCCCCCCCCCCCSc1nc(NCCCCCCCC)nc(NCCCN(C)C)n1 [Compound D6S12N8]	30.5
CCCCCCCCCCCCCCCSc1nc(NCCCCCCCCCCCCC)nc(NCC2CCN(C)CC2)n1 [Compound D10S15N13]	5.4
CCCCCCCCCCCCCCCCCCSc1nc(NCCCCCCC)nc(NCCCN(C)C)n1 [Compound D6S18N7]	87.5
CCCCCCCCCCCCCCCNc1nc(NCCCN2CCOCC2)nc(SCCCCCCCC)n1 [Compound D8S8N15]	4.6
CCCCCCCCCCCCCCSc1nc(NCCN2CCN(C)CC2)nc(SCCCCCCC)n1 [Compound D5S7S14]	63.7
CCCCCCCCCCCCSc1nc(NCCCCCC)nc(NCCN2CCOCC2)n1 [Compound D2S12N6]	0.0
CCCCCCCNc1nc(NCCCN(C)C)nc(SCCCCCC)n1 [Compound D6S6N7]	0.2
CCCCCCCCCCCCN(CCCCCCCCCCCC)c1nc(NCCN(C)C)nc(SCCCCCCCCC)n1 [D1S9^2N12]	1.0
